For 30 molecules, IC50 results are on record in patent US8993565B2, “(6-oxo-1,6-dihydropyrimidin-2-yl)amide derivatives, preparation thereof and pharmaceutical use thereof as AKT(PKB) phosphorylation inhibitors” (Sanofi, priority 2009, dated 2015).

A word on the pIC50: it is the IC50 on a negative log10 scale, so that one unit is a factor of ten.

pIC50: −log10 of the molar value.

The test relates to AKT protein phosphorylated on serine 473 (P-AKT-S473). Put plainly: Study of pAKT expression in PC3 human prostate carcinoma cells measured by the MSD Multi-spot Biomarker Detection technique (Test B). The format is cell-based. To be noted: PC-3, inhibition of AKT phosphorylation (P-AKT-S473), MSD sandwich immunoassay, 1 to 2 h incubation, absolute IC50, mean of 2 experiments. The procedure:
The inhibitory activity of the molecules on AKT phosphorylation is measured either by western blotting using the technique described below, or by the MSD Multi-spot Biomarker detection technique from Meso Scale Discovery also described below.
Study of pAKT Expression in PC3 Human Prostate Carcinoma Cells Measured by the MSD Multi-Spot Biomarker Detection Technique from Meso Scale Discovery (Test B):
The primary antibody specific for P-AKT-S473 (Kit #K151CAD) is coated on to an electrode in each well of the 96-well plates of the MSD, kit: after the addition of a protein lysate to each well, the signal is visualised by adding a secondary detection antibody labelled with an electrochemoluminescent compound. The procedure followed is that described in the kit.
On day 2, the cells are incubated in the presence or absence of the test products for 1 to 2 h at 37° C. in the presence of 5% of CO2. The molecules, diluted in dimethyl sulphoxide (DMSO Sigma #D2650), are added from a 20-times concentrated stock solution, the final percentage of DMSO being 0.1%. The molecules are tested either at a single concentration of less than or equal to 10 μM, or at increasing concentrations in a range that can extend from less than 1 nM to 10 μM.
After this incubation, the cells are lysed for the preparation of the proteins. […] At this stage, the plates containing the lysates can be stored at −20° C. or at −80° C.
The wells of the 96-well plates of the MSD kit are saturated for 1 h at ambient temperature with the blocking solution of the MSD kit. Four washes are carried out with 150 μl of Tris Wash Buffer of the MSD kit. The lysates previously prepared are transferred into the 96-well multi-spot plates of the MSD kit and incubated for 1 h at ambient temperature, with shaking. Four washes are carried out with 150 μl of Tris Wash Buffer of the MSD kit. 25 μl of the MSD sulfo-tag detection antibody solution are added to the wells and incubated for 1 h at ambient temperature, with shaking. Four washes are carried out with 150 μl of Tris Wash Buffer of the MSD kit. 150 μl of Read Buffer of the MSD kit are added to the wells and the plates are read immediately on the S12400 instrument from Meso Scale Discovery.
The instrument measures a signal for each well. Wells without cells and containing the lysis buffer serve to determine the background noise that will be subtracted from all the measurements (min). The wells containing cells in the absence of product and in the presence of 0.1% DMSO are considered to be the 100% signal (max). The percentage inhibition is calculated for each concentration of test product according to the following formula: (1-((test-min)(max-min)))×100.
2 independent experiments make it possible to calculate the mean of the IC50 values.
Take `CC1Cc2ccccc2N1C(=O)Cc1nc(N2CCOCC2)cc(=O)[nH]1` (stereo not drawn) [Example 96, 2-[2-(2-methyl-2,3-dihydro-1H-indol-1-yl)-2-oxoethyl]-6-(morpholin-4-yl)pyrimidin-4(3H)-one]: the pIC50 is 8.22.

As for `Cn1c(CC(=O)Nc2ccc(F)c(C(F)F)c2)nc(N2CCOCC2)cc1=O` [Example 97, N-[3-(difluoromethyl)-4-fluorophenyl]-2-[1-methyl-4-(morpholin-4-yl)-6-oxo-1,6-dihydropyrimidin-2-yl]acetamide], the pIC50 was 6.59.

The molecule `Cn1c(CC(=O)Nc2cc(F)c(F)c(F)c2)nc(N2CCOCC2)cc1=O` [Example 98, 2-(1-methyl-4-morpholin-4-yl-6-oxo-1,6-dihydropyrimidin-2-yl)-N-(3,4,5-trifluorophenyl)acetamide] had a pIC50 of 6.66.

Turning to `Cn1ccc2c(NC(=O)Cc3nc(N4CCOCC4)cc(=O)[nH]3)cccc21` [Example 99, N-(1-methyl-1H-indol-4-yl)-2-[4-(morpholin-4-yl)-6-oxo-1,6-dihydropyrimidin-2-yl]acetamide], the pIC50 was 6.18.

As for `Cc1cccc2c1CCN2C(=O)Cc1nc(N2CCOCC2)cc(=O)[nH]1` [Example 100, 2-[2-(4-methyl-2,3-dihydro-1H-indol-1-yl)-2-oxoethyl]-6-(morpholin-4-yl)pyrimidin-4(3H)-one], the pIC50 is 8.52.

Regarding `CC1CN(C(=O)Cc2nc(N3CCOCC3)cc(=O)[nH]2)c2ccccc21` (stereo not drawn) [Example 101, 2-[2-(3-methyl-2,3-dihydro-1H-indol-1-yl)-2-oxoethyl]-6-(morpholin-4-yl)pyrimidin-4(3H)-one], the pIC50 was 7.89.

In the case of `O=C(Cc1nc(N2CCOCC2)cc(=O)[nH]1)N1CCc2cc(F)ccc21` [Example 103, 2-[2-(5-Fluoro-2,3-dihydroindol-1-yl)-2-oxoethyl]-6-morpholin-4-yl-3H-pyrimidin-4-one], the pIC50 was 8.15.

As for `O=C(Cc1nc(N2CCOCC2)cc(=O)[nH]1)Nc1cccc2sccc12` [Example 105, N-(1-benzothiophen-4-yl)-2-[4-(morpholin-4-yl)-6-oxo-1,6-dihydropyrimidin-2-yl]acetamide], the pIC50 is 7.82.

Molecule `O=C(Cc1nc(N2CCOCC2)cc(=O)[nH]1)Nc1ccccc1OCCN1CCCCC1` [Example 107, 2-[4-(morpholin-4-yl)-6-oxo-1,6-dihydropyrimidin-2-yl]-N-{2-[2-(piperidin-1-yl)ethoxy]phenyl}acetamide] showed a pIC50 of 7.62.

`COCCOc1ccccc1NC(=O)Cc1nc(N2CCOCC2)cc(=O)[nH]1` [Example 108, N-[2-(2-methoxyethoxy)phenyl]-2-[4-(morpholin-4-yl)-6-oxo-1,6-dihydropyrimidin-2-yl]acetamide] had a pIC50 of 7.25.

Consider `Cn1c(CC(=O)N2CCc3c(O)cccc32)nc(N2CCOCC2)cc1=O` [Example 109, 2-[2-(4-hydroxy-2,3-dihydro-1H-indol-1-yl)-2-oxoethyl]-3-methyl-6-(morpholin-4-yl)pyrimidin-4(3H)-one], for which the pIC50 is 7.37.

For the molecule `O=C(Cc1nc(N2CCOCC2)cc(=O)[nH]1)Nc1ccccc1OCCN1CCCC1` [Example 112, 2-[4-(morpholin-4-yl)-6-oxo-1,6-dihydropyrimidin-2-yl]l-N-{2-[2-(pyrrolidin-1-yl)ethoxy]phenyl}acetamide], the pIC50 is 7.64.

`O=C(Cc1nc(N2CCOCC2)cc(=O)[nH]1)Nc1ccccc1OCc1cccnc1` [Example 113, 2-[4-(morpholin-4-yl)-6-oxo-1,6-dihydropyrimidin-2-yl]-N-[2-(pyridin-3-ylmethoxy)phenyl]acetamide]: the pIC50 is 6.18.

As to `C[C@H]1Cc2ccccc2N1C(=O)Cc1nc(N2CCOCC2)cc(=O)[nH]1` [Example 117, 2-{2-[(2S)-2-methyl-2,3-dihydro-1H-indol-1-yl]-2-oxoethyl}-6-(morpholin-4-yl)pyrimidin-4(3 H)-one], the pIC50 is 7.72.

Take `C[C@@H]1Cc2ccccc2N1C(=O)Cc1nc(N2CCOCC2)cc(=O)[nH]1` [Example 118, 2-{2-[(2R)-2-methyl-2,3-dihydro-1H-indol-1-yl]-2-oxoethyl}-6-(morpholin-4-yl)pyrimidin-4(3H)-one]: the pIC50 is 7.92.

As to `NC(=O)C1Cc2ccccc2N1C(=O)Cc1nc(N2CCOCC2)cc(=O)[nH]1` (stereo not drawn) [Example 122, 1-{[4-(morpholin-4-yl)-6-oxo-1,6-dihydropyrimidin-2-yl]acetyl}-2,3-dihydro-1H-indole-2-carboxamide], the pIC50 is 6.30.

With `C[C@@H]1CN(C(=O)Cc2nc(N3CCOCC3)cc(=O)[nH]2)c2ccccc21` [Example 125, 2-{2-[(3S)-3-methyl-2,3-dihydro-1H-indol-1-yl]-2-oxoethyl}-6-(morpholin-4-yl)pyrimidin-4(3 H)-one], the pIC50 is 7.80.

The molecule `C[C@H]1CN(C(=O)Cc2nc(N3CCOCC3)cc(=O)[nH]2)c2ccccc21` [Example 126, 2-{2-[(3R)-3-methyl-2,3-di hydro-1H-indol-1-yl]-2-oxoethyl}-6-(morpholin-4-yl)pyrimidin-4(3H)-one] showed a pIC50 of 7.24.

Take `Cn1c(CC(=O)N2CCc3c2ccc(F)c3F)nc(N2CCOCC2)cc1=O` [Example 128, 2-[2-(4,5-difluoro-2,3-dihydro-1H-indol-1-yl)-2-oxoethyl]-3-methyl-6-(morpholin-4-yl)pyrimidin-4(3H)-one]: the pIC50 is 7.16.

Regarding `O=C(Cc1nc(N2CCOCC2)cc(=O)[nH]1)N1Cc2ccccc2C1` [Example 129, 2-[2-(1,3-dihydro-2H-isoindol-2-yl)-2-oxoethyl]-6-(morpholin-4-yl)pyrimidin-4(3H)-one], the pIC50 was 6.00.

On to `O=C(Cc1nc(N2CCOCC2)cc(=O)[nH]1)Nc1ccc(F)cc1OCC1CCNCC1` [Example 133, N-[4-fluoro-2-(piperidin-4-ylmethoxy)phenyl]-2-[4-(morpholin-4-yl)-6-oxo-1,6-dihydropyrimidin-2-yl]acetamide], for which the pIC50 is 6.76.

Molecule `O=C(Cc1nc(N2CCOCC2)cc(=O)[nH]1)N1CCc2cc(Cl)ccc21` [Example 134, 2-[2-(5-Chloro-2,3-dihydroindol-1-yl)-2-oxoethyl]-6-morpholin-4-yl-3H-pyrimidin-4-one] showed a negative-log IC50 (pIC50) of 6.91.

On to `O=C(Cc1nc(N2CCOCC2)cc(=O)[nH]1)N1CCc2c(Br)cccc21` [Example 135, 2-[2-(4-Bromo-2,3-dihydroindol-1-yl)-2-oxoethyl]-6-morpholin-4-yl-3H-pyrimidin-4-one], for which the pIC50 was 9.00.

As to `CN(C)C[C@@H]1CN(C(=O)Cc2nc(N3CCOCC3)cc(=O)[nH]2)c2ccccc21` [Example 137, 2-(2-{(3R)-3-[(dimethylamino)methyl]-2,3-dihydro-1H-indol-1-yl}-2-oxoethyl)-6-(morpholin-4-yl)pyrimidin-4(3H)-one], the pIC50 is 7.17.

`COCCOc1cc(F)ccc1NC(=O)Cc1nc(N2CCOCC2)cc(=O)[nH]1` [Example 138, N-[4-fluoro-2-(2-methoxyethoxy)phenyl]-2-[4-(morpholin-4-yl)-6-oxo-1,6-dihydropyrimidin-2-yl]acetamide]: the pIC50 is 7.46.

For the molecule `O=C(Cc1nc(N2CCOCC2)cc(=O)[nH]1)Nc1cccc2[nH]cnc12` [Example 139, N-(1H-benzimidazol-4-yl)-2-[4-(morpholin-4-yl)-6-oxo-1,6-dihydropyrimidin-2-yl]acetamide], the pIC50 is 5.52.

`COC(=O)c1cccc(NC(=O)Cc2nc(N3CCOCC3)cc(=O)[nH]2)c1O` [Example 140, methyl 2-hydroxy-3-(([4-(morpholin-4-yl)-6-oxo-1,6-dihydropyrimidin-2-yl]acetyl)amino)benzoate]: the pIC50 was 6.52.

Take `COc1cccc2c1CCN2C(=O)Cc1nc(N2CCOCC2)cc(=O)[nH]1` [Example 141, 2-[2-(4-Methoxy-2,3-dihydroindol-1-yl)-2-oxoethyl]-6-morpholin-4-yl-3H-pyrimidin-4-one]: the pIC50 is 7.22.

Molecule `O=C(Cc1nc(N2CCOCC2)cc(=O)[nH]1)Nc1cccc(Br)c1O` [Example 142, N-(3-bromo-2-hydroxyphenyl)-2-[4-(morpholin-4-yl)-6-oxo-1,6-dihydropyrimidin-2-yl]acetamide] gave a pIC50 of 7.66.

For `COC(=O)c1cc(F)ccc1NC(=O)Cc1nc(N2CCOCC2)cc(=O)[nH]1` [Example 144, Methyl 5-fluoro-2-({[4-(morpholin-4-yl)-6-oxo-1,6-dihydropyrimidin-2-yl]acetyl}amino)benzoate], the pIC50 is 6.36.
